Measured values reported in patent US9149038B2, “4-amino-6-(heterocyclic)picolinates and 6-amino-2-(heterocyclic)pyrimidine-4-carboxylates and their use as herbicides” (Dow AgroSciences LLC, priority 2013, dated 2015).
Like-named read-outs stand apart in the source and are kept apart here.

How the values were obtained:
[1] = test system: Key Broadleaf Weed and Crop Species; assay: Post-Emergent Test II: postemergent herbicidal activity, visual rating after 14 d (Table 7); type: in vivo; conditions: post-emergence, 336 h; for pest or weed control at 140 g/ha: 140 g ai/ha; for pest or weed control at 35 g/ha: 35 g ai/ha; for pest or weed control at 70 g/ha: 70 g ai/ha
Source text: (§1) Herbicidal evaluations were made visually on a scale of 0 to 100 where 0 represents no activity and 100 represents complete plant death.
(§2) Seeds or nutlets of the desired test plant species were planted in Sun Gro Metro-Mix® 360 planting mixture, which typically has a pH of 6.0 to 6.8 and an organic matter content of about 30 percent, in plastic pots with a surface area of 64 square centimeters (cm^2). When required to ensure good germination and healthy plants, a fungicide treatment and/or other chemical or physical treatment was applied. The plants were grown for 7-21 d in a greenhouse with an approximate 15 h photoperiod which was maintained at about 23-29° C. during the day and 22-28° C. during the night. Nutrients and water were added on a regular basis and supplemental lighting was provided with overhead metal halide 1000-Watt lamps as necessary. The plants were employed for testing when they reached the first or second true leaf stage.
(§3) A weighed amount, determined by the highest rate to be tested, of each test compound was placed in a 25 mL glass vial and was dissolved in 4 mL of a 97:3 v/v mixture of acetone and DMSO to obtain concentrated stock solutions. […] The concentrated stock solutions obtained were diluted with 20 mL of an aqueous mixture containing acetone, water, isopropyl alcohol, DMSO, Atplus 411F crop oil concentrate, and Triton® X-155 surfactant in a 48.5:39:10:1.5:1.0:0.02 v/v ratio to obtain spray solutions containing the highest application rates. Additional application rates were obtained by serial dilution of 12 mL of the high rate solution into a solution containing 2 mL of a 97:3 v/v mixture of acetone and DMSO and 10 mL of an aqueous mixture containing acetone, water, isopropyl alcohol, DMSO, Atplus 411F crop oil concentrate, and Triton X-155 surfactant in a 48.5:39:10:1.5:1.0:0.02 v/v ratio to obtain ½×, ¼×, ⅛× and 1/16× rates of the high rate. Compound requirements are based upon a 12 mL application volume at a rate of 187 liters per hectare (L/ha). Formulated compounds were applied to the plant material with an overhead Mandel track sprayer equipped with 8002E nozzles calibrated to deliver 187 L/ha over an application area of 0.503 square meters at a spray height of 18 inches (43 cm) above the average plant canopy height. Control plants were sprayed in the same manner with the solvent blank.
(§4) The treated plants and control plants were placed in a greenhouse as described above and watered by subirrigation to prevent wash-off of the test compounds. After 14 d, the condition of the test plants as compared with that of the untreated plants was determined visually and scored on a scale of 0 to 100 percent where 0 corresponds to no injury and 100 corresponds to complete kill and are presented as indicated in Table 4.

[2] = test system: Key Grass and Sedge Weeds as well as Grass Crops; assay: Post-Emergent Test II: postemergent herbicidal activity, visual rating after 14 d (Table 8); type: in vivo; conditions: post-emergence, 336 h; for pest or weed control at 140 g/ha: 140 g ai/ha; for pest or weed control at 35 g/ha: 35 g ai/ha; for pest or weed control at 70 g/ha: 70 g ai/ha
Source text: as §1, §2, §3, §4

[3] = lambsquarters (Chenopodium album), read-out: Visual Growth Reduction (%) 14 Days After Application CHEAL
[4] = oilseed rape, canola (Brassica napus), read-out: Visual Growth Reduction (%) 14 Days After Application BRSNN
[5] = redroot pigweed (Amaranthus retroflexus), read-out: Visual Growth Reduction (%) 14 Days After Application AMARE
[6] = sunflower (Helianthus annuus), read-out: Visual Growth Reduction (%) 14 Days After Application HELAN
[7] = velvetleaf (Abutilon theophrasti), read-out: Visual Growth Reduction (%) 14 Days After Application ABUTH
[8] = wild poinsettia (Euphorbia heterophylla), read-out: Visual Growth Reduction (%) 14 Days After Application EPHHL
[9] = barnyardgrass (Echinochloa crus-galli), read-out: Visual Growth Reduction (%) 14 Days After Application ECHCG
[10] = giant foxtail (Setaria faberi), read-out: Visual Growth Reduction (%) 14 Days After Application SETFA
[11] = rice (Oryza sativa), read-out: Visual Growth Reduction (%) 14 Days After Application ORYSA
[12] = wheat, spring (Triticum aestivum), read-out: Visual Growth Reduction (%) 14 Days After Application TRZAS
[13] = yellow nutsedge (Cyperus esculentus), read-out: Visual Growth Reduction (%) 14 Days After Application CYPES

COC(=O)c1nc(-c2cc(OC)c3c(c2)OCO3)c(F)c(N)c1Cl [Compound 14]
pest or weed control at 140 g/ha [1, 3]: 75 to 84%
pest or weed control at 140 g/ha [1, 4]: 0 to 29%
pest or weed control at 140 g/ha [1, 5]: 0 to 29%
pest or weed control at 140 g/ha [1, 6]: 85 to 94%
pest or weed control at 140 g/ha [1, 7]: 0 to 29%
pest or weed control at 140 g/ha [1, 8]: 0 to 29%
pest or weed control at 140 g/ha [2, 9]: 0 to 29%
pest or weed control at 140 g/ha [2, 10]: 0 to 29%
pest or weed control at 140 g/ha ([2]; maize, corn (Zea mays), read-out: Visual Growth Reduction (%) 14 Days After Application ZEAMX): 0 to 29%
pest or weed control at 140 g/ha [2, 11]: 0 to 29%
pest or weed control at 140 g/ha [2, 12]: 0 to 29%
pest or weed control at 140 g/ha [2, 13]: 0 to 29%

COC(=O)c1nc(-c2ccc3c(c2)CCN3C)c(F)c(N)c1Cl [Compound 107]
pest or weed control at 140 g/ha ([1]; ABUTH: velvetleaf (Abutilon theophrasti), read-out: Visual Growth Reduction (%) 14 Days After Application ABUTH): 60 to 74%
pest or weed control at 140 g/ha ([1]; AMARE: redroot pigweed (Amaranthus retroflexus), read-out: Visual Growth Reduction (%) 14 Days After Application AMARE): 0 to 29%
pest or weed control at 140 g/ha ([1]; BRSNN: oilseed rape, canola (Brassica napus), read-out: Visual Growth Reduction (%) 14 Days After Application BRSNN): 0 to 29%
pest or weed control at 140 g/ha ([1]; CHEAL: lambsquarters (Chenopodium album), read-out: Visual Growth Reduction (%) 14 Days After Application CHEAL): 85 to 94%
pest or weed control at 140 g/ha ([1]; EPHHL: wild poinsettia (Euphorbia heterophylla), read-out: Visual Growth Reduction (%) 14 Days After Application EPHHL): 95 to 100%
pest or weed control at 140 g/ha ([1]; HELAN: sunflower (Helianthus annuus), read-out: Visual Growth Reduction (%) 14 Days After Application HELAN): 0 to 29%
pest or weed control at 140 g/ha ([2]; barnyardgrass (Echinochloa crus-galli), read-out: Visual Growth Reduction (%) 14 Days After Application, ECHCG): 0 to 29%
pest or weed control at 140 g/ha ([2]; giant foxtail (Setaria faberi), read-out: Visual Growth Reduction (%) 14 Days After Application, SETFA): 0 to 29%
pest or weed control at 140 g/ha ([2]; maize, corn (Zea mays), read-out: Visual Growth Reduction (%) 14 Days After Application, ZEAMX): 0 to 29%
pest or weed control at 140 g/ha ([2]; rice (Oryza sativa), read-out: Visual Growth Reduction (%) 14 Days After Application, ORYSA): 0 to 29%
pest or weed control at 140 g/ha ([2]; wheat, spring (Triticum aestivum), read-out: Visual Growth Reduction (%) 14 Days After Application, TRZAS): 0 to 29%
pest or weed control at 140 g/ha ([2]; yellow nutsedge (Cyperus esculentus), read-out: Visual Growth Reduction (%) 14 Days After Application, CYPES): 0 to 29%

COC(=O)c1nc(-c2ccc(Cl)c3c2OC(F)(F)O3)c(Cl)c(N)c1Cl [Compound 70]
pest or weed control at 35 g/ha [1, 3]: 75 to 84%
pest or weed control at 70 g/ha [1, 3]: 85 to 94%
pest or weed control at 140 g/ha [1, 3]: 95 to 100%
pest or weed control at 35 g/ha [1, 4]: 60 to 74%
pest or weed control at 70 g/ha [1, 4]: 60 to 74%
pest or weed control at 140 g/ha [1, 4]: 75 to 84%
pest or weed control at 35 g/ha [1, 5]: 95 to 100%
pest or weed control at 70 g/ha [1, 5]: 95 to 100%
pest or weed control at 140 g/ha [1, 5]: 95 to 100%
pest or weed control at 35 g/ha [1, 6]: 85 to 94%
pest or weed control at 70 g/ha [1, 6]: 95 to 100%
pest or weed control at 140 g/ha [1, 6]: 95 to 100%
pest or weed control at 35 g/ha [1, 7]: 45 to 59%
pest or weed control at 70 g/ha [1, 7]: 75 to 84%
pest or weed control at 140 g/ha [1, 7]: 75 to 84%
pest or weed control at 35 g/ha [1, 8]: 0 to 29%
pest or weed control at 70 g/ha [1, 8]: 0 to 29%
pest or weed control at 140 g/ha [1, 8]: 0 to 29%
pest or weed control at 35 g/ha [2, 9]: 0 to 29%
pest or weed control at 70 g/ha [2, 9]: 0 to 29%
pest or weed control at 140 g/ha [2, 9]: 0 to 29%
pest or weed control at 35 g/ha [2, 10]: 0 to 29%
pest or weed control at 70 g/ha [2, 10]: 0 to 29%
pest or weed control at 140 g/ha [2, 10]: 0 to 29%
pest or weed control at 35 g/ha [2, 11]: 0 to 29%
pest or weed control at 70 g/ha [2, 11]: 0 to 29%
pest or weed control at 140 g/ha [2, 11]: 0 to 29%
pest or weed control at 35 g/ha [2, 12]: 0 to 29%
pest or weed control at 70 g/ha [2, 12]: 0 to 29%
pest or weed control at 140 g/ha [2, 12]: 0 to 29%
pest or weed control at 35 g/ha [2, 13]: 0 to 29%
pest or weed control at 70 g/ha [2, 13]: 0 to 29%
pest or weed control at 140 g/ha [2, 13]: 0 to 29%
